Measured values reported in US11136583B2, “Methods and materials for treating cancer” (Mayo Foundation for Medical Education and Research, priority 2017, dated 2021).

How the values were obtained:
[1] = system: Protein kinase ataxia-telangiectasia mutated (ATM) signaling; test: ATM signaling in irradiated U2OS cells by western blot; assay type: cell-based; conditions: U2OS cells pretreated 6 hours, then 10 Gy IR, harvested 30 minutes after IR (FIG. 11)
Experimental: FIG. 11. U2OS cells were pretreated with AZD6244. 6 hours later, cells were treated with 10 Gy IR. 30 minutes after ionizing radiation, cells were harvested, lysed, and analyzed by western blot with the indicated antibodies.
(§1) U2OS cells were plated in 6 well plates, and MEK1 inhibitors (AZD6244 or GDC0623) were added to wells with 10 μM final concentration and incubated for 48 hours. AZD6244 was purchased from Selleckchem. In some cases, cells were also irradiated with IR (10 Gy IR for 30 minutes).
(§2) Cells were washed once with PBS and lysed with SDS lysis buffer. The samples were separated by SDS-PAGE following three washes with NETN buffer. Western blots were carried out following standard procedures.

[2] = system: UFL1; test: Ufmylation level in U2OS cells by western blot with UFM1 antibody; assay type: cell-based
Experimental: FIG. 10. U2OS cells were treated with AZD6244 or GDC0623. 48 hours later, cell were harvested, lysed, and analyzed by western blot with the indicated antibodies.
as §1, §2
To identify an inhibitor of UFL1 activity that induced a significant decrease of ufmylation, cells were treated with inhibitors and were analyzed by western blot using UFM1 antibody to detect the ufmylation level in the cells.

Cn1cnc2c(F)c(Nc3ccc(Br)cc3Cl)c(C(=O)NOCCO)cc21 [AZD6244, selumetinib]
ATM signaling [1]: greatly suppressed | UFL1 inhibition (conclusion from ufmylation and ATM signaling western blots) [2]: inhibits UFL1 | ufmylation level in the cells ([2]; 10 μM, 48 hours, western blot with UFM1 antibody (FIG. 10)): greatly suppressed
